From patent US7781421B2, “Neuroactive 13, 24-cyclo-18, 21-dinorcholanes and structurally related pentacyclic steriods” (Washington University, priority 2003, dated 2010)
Read-outs that look alike come from different tables or passages of the source.

How the values were obtained:
Xenopus laevis tadpoles = experiment: Tadpole loss of righting (LRR) and swimming (LSR) reflexes; assay type: in vivo; settings: 3 h equilibration at room temperature; for EC50: read-out: LSR EC50 (loss of swimming response)
Procedure: Tadpole LRR was measured as described previously. (See, Wittmer, L. L., et al., Enantioselectivity of steroid-induced γ-aminobutyric acidA receptor modulation and anesthesia, Mol. Phar., 1996, 50:1581-1586). Briefly, groups of 10 early prelimb-bud stage Xenopus laevis tadpoles (Nasco, Fort Atkinson, Wis.) were placed in 100 mL of oxygenated Ringer's stock solution containing various concentrations of compound. Compounds were added from a 10 mM DMSO stock (final concentration of DMSO in test solutions ≦0.1%). After equilibrating at room temperature for 3 h, tadpoles were evaluated using the LRR and LSR behavioral endpoints. LRR was defined as failure of the tadpole to right itself within 5 sec after being flipped by a smooth glass rod. LSR was defined as failure of the tadpole to swim when touched by a smooth glass rod. In general, the tadpoles regained their righting and swimming reflexes when placed in fresh oxygenated Ringer's solution. Control beakers containing up to 0.6% DMSO produced no LRR or LSR in tadpoles.
Tadpole LRR and LSR concentration-response curves were fit using Sigma Plot version 3.0 to the Hill equation f=Rmax/{1+([conc]/EC50)^n}
where Rmax is the maximum effect, [conc] is the steroid concentration, EC50 is the half-maximal effective concentration, and n is the Hill coefficient.

[1] = target: T1, rat α1β2γ2 GABAA Receptor (Rattus norvegicus, UniProt P18508+P62813+P63138, INS375LLRMFSFK); experiment: Xenopus oocyte two-electrode voltage-clamp electrophysiology; assay type: cell-based; settings: for Oocyte electrophysiology, ratio of currents in presence/absence of compound, 0.1 μM: 0.1 μM compound co-applied with 2 μM GABA; for Oocyte electrophysiology, ratio of currents in presence/absence of compound, 0.1 μM / Oocyte electrophysiology, ratio of currents in presence/absence of compound, 1 μM / Oocyte electrophysiology, ratio of currents in presence/absence of compound, 10 μM: −70 mV; for Oocyte electrophysiology, ratio of currents in presence/absence of compound, 1 μM: 1 μM compound co-applied with 2 μM GABA; for Oocyte electrophysiology, ratio of currents in presence/absence of compound, 10 μM: 10 μM compound co-applied with 2 μM GABA; for Gating (10 μM), ratio of compound only current/2 μM GABA current: direct current gated by 10 μM compound in the absence of GABA
T1 construct: from linearized pBluescript vectors containing receptor coding regions; expressed in transfected cells; host or cells: Xenopus laevis oocytes injected with in vitro transcribed capped mRNA
Procedure: Stage V-VI oocytes were harvested from sexually mature female Xenopus laevis (Xenopus One, Northland, Mich.) under 0.1% tricaine (3-aminobenzoic acid ethyl ester) anesthesia. Oocytes were defolliculated by shaking for 20 min at 37° C. in collagenase (2 mg/ml) dissolved in calcium-free solution containing (in mM): 96 NaCl, 2 KCl, 1 MgCl2, and 5 HEPES at pH 7.4. Capped mRNA, encoding rat GABAA receptor α1, β2 and γ2L subunits was transcribed in vitro using the mMESSAGE mMachine Kit (Ambion, Austin, Tex.) from linearized pBluescript vectors containing receptor coding regions. Subunit transcripts were injected in equal parts (20-40 ng total RNA) 8-24 hours following defolliculation. Oocytes were incubated up to 5 days at 18° C. in ND96 medium containing (in mM): 96 NaCl, 1 KCl, 1 MgCl2, 2 CaCl2 and 5 HEPES at pH 7.4, supplemented with pyruvate (5 mM), penicillin (100 U/ml), streptomycin (100 μg/ml) and gentamycin (50 μg/ml). The cDNAs for the rat GABAA-receptor subunits were originally provided by A. Tobin, University of California, Los Angels (α1), P. Malherbe, Hoffman-La Roche, Switzerland (β2), C. Fraser, National Institute on Alcohol Abuse and Alcoholism (γ2L).
Two-electrode voltage-clamp experiments were performed with a Warner OC725 amplifier 2-5 days following RNA injection. The extracellular recording solution was ND96 medium with no supplements. Intracellular recording pipettes were filled with 3 M KCl and had open tip resistances of ˜1 MΩ. Drugs were applied from a common tip via a gravity-driven multibarrel drug-delivery system. Steroids were simultaneously co-applied with GABA. Cells were clamped at −70 mV for all experiments, and peak current during 20 s drug applications was measured. Data acquisition and analysis were performed with pCLAMP software (Axon Instruments, California). Statistical differences were determined using a two-tailed Student's t-test.
The GABA concentration used for the control response was 2 μM. Each compound was evaluated on at least four different oocytes at the concentrations indicated, and the results reported are the ratio of the currents measured in the presence/absence of added compound. (G) represents direct current gated by 10 μM compound in the absence of GABA, and this current is reported as the ratio of compound only current/2 μM GABA current. Error limits are calculated as standard error of the means.

[2] = target: GABAA receptor ([35S]-TBPS binding site, rat brain cortical membranes); experiment: Displacement of [35S]-TBPS binding, rat brain cortical membranes; settings: 5 μM GABA, 2 nM [35S]-TBPS; ± standard error of the means
Procedure: Rat brain cortical membranes were prepared with minor modifications of the method previously reported. (Hawkinson, J. E., et al., Correlation of Neuroactive Steroid Modulation of [^35S]t-Butylbicyclophosophorothionate and [^3H]Flunitrazepam Binding and γ-Aminobutyric AcidA Receptor Function, Mol. Pharmacol., 1994, 46, 977-985). Briefly, frozen rat cerebral cortices (Pel-freez, Rogers, Ak.) were thawed and homogenized in 10 volumes of ice-cold 0.32 M sucrose using a glass/Teflon pestle. The homogenate was centrifuged at 1500×g for 10 min at 4° C. The resultant supernatant was centrifuged at 10,000×g for 30 min at 4° C. The pellet (P2) from this centrifugation was resuspended in 200 mM NaCl, 50 mM potassium phosphate buffer, pH 7.4, and centrifuged at 10,000×g for 20 min at 4° C. This washing procedure was done a total of three times, and then pellets were resuspended in buffer (˜4 mL/brain) using a glass/Teflon pestle. The membrane suspension was aliquoted, frozen in liquid nitrogen, and stored at −80° C. prior to use.
[^35S]-TBPS Binding assays were done according to the procedure described previously (Hawkinson, J. E., et al., Correlation of Neuroactive Steroid Modulation of [^35S]t-Butylbicyclophosophorothionate and [^3H]Flunitrazepam Binding and γ-Aminobutyric AcidA Receptor Function, Mol. Pharmacol., 1994, 46, 977-985) with modifications. Briefly, aliquots of membrane solution (0.5 mg/mL final protein concentration in assay) were incubated with 5 μM GABA, 2 nM [^35S]-TBPS (45-120 Ci/mmol), and 5 μL aliquots of steroid in DMSO solution (final assay concentrations ranged from 1 nM to 10 μM), and brought to a final volume of 1 mL with 200 mM NaCl, 50 mM potassium phosphate buffer, pH 7.4. […] Assay tubes were incubated for 2 hr at room temperature. A Brandel (Gaithersburg, Md.) cell harvester was used for filtration of the assay tubes through Whatman/GF/C glass filter paper. Filter paper was rinsed with 4 mL of ice-cold buffer three times. Radioactivity bound to the filters was read by liquid scintillation counter and data was fit using Sigma Plot version 3.0 to the Hill equation i. f=Rmax/{1+([conc]/IC50)^n}
Where Rmax is the maximal effect, [conc] is steroid concentration, IC50 is the half-maximal inhibitor concentration and n is the Hill coefficient. Each data point was determined in triplicate and 2-3 full concentration-response curves were generated for each steroid.

T1 sequence (P62813 28-455, stated change not applied): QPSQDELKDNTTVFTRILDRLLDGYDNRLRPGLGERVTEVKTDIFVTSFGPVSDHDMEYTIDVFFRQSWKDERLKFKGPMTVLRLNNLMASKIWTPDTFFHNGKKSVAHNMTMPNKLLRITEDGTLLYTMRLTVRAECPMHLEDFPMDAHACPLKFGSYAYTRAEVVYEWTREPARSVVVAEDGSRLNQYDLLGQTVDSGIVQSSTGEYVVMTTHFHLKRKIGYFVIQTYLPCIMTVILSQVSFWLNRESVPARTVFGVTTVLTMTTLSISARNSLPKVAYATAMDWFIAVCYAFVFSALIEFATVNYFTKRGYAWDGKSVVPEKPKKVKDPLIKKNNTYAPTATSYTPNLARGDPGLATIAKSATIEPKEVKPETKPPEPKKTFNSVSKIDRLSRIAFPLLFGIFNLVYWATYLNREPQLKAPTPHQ
T1 sequence (P63138 26-474, stated change not applied): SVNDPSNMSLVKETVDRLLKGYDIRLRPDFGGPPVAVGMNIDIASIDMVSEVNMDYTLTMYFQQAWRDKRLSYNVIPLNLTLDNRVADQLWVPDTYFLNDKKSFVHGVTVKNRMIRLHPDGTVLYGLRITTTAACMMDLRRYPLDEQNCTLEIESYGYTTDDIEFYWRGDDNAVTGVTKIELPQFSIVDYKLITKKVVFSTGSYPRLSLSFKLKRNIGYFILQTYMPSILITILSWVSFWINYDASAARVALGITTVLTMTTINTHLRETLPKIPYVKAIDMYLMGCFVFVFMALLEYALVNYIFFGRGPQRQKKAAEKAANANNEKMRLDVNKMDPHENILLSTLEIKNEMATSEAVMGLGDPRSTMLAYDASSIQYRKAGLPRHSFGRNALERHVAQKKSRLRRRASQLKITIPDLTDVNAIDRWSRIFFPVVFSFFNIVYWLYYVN
T1 sequence (P18508 with tags, fused parts or gaps INS375LLRMFSFK): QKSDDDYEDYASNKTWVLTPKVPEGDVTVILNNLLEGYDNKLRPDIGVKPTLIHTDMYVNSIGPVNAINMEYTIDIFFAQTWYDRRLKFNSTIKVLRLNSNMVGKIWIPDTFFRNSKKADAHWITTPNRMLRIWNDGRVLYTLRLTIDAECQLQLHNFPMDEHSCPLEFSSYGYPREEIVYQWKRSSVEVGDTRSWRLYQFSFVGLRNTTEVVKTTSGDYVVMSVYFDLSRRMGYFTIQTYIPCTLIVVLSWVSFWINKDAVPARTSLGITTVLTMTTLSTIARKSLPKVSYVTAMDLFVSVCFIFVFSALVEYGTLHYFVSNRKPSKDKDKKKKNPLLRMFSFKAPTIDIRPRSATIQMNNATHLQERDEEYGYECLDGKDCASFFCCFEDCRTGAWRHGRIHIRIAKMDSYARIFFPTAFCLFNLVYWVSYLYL

SMILES | LRR ED50 (loss of righting response) (Xenopus laevis tadpoles) [µM] | EC50 (Xenopus laevis tadpoles; Xenopus laevis, 3 h) [µM] | Oocyte electrophysiology, ratio of currents in presence/absence of compound, 0.1 μM [1] | Oocyte electrophysiology, ratio of currents in presence/absence of compound, 1 μM [1] | Oocyte electrophysiology, ratio of currents in presence/absence of compound, 10 μM [1] | Gating (10 μM), ratio of compound only current/2 μM GABA current [1] | melting point [°C] | IC50 [2] [nM] | EC50 (Xenopus laevis tadpoles) [µM] | Reversibility of steroid effect on GABA current (FIG. 1A) ([1]; 500 nM compound, 2 μM GABA, GABA recovery panel) | LSR EC50 (loss of swimming response) (Xenopus laevis tadpoles)
CC12CCC(O)CC1CCC1C2CCC23C=CC(=O)CC2CCC13 (stereo not drawn) [Compound 30a, (3α,5α)-3-Hydroxy-13,24-Cyclo-18,21-dinorchol-23-en-22-one] | 0.73 ± 0.16 | 5.48 ± 0.09 | 1.12 ± 0.08 | 1.54 ± 0.30 | 5.07 ± 0.98 | −0.04 ± 0.05 | 168 to 170 | 1260 ± 100 |  |  | 
CC12CCC(O)CC1CCC1C2CCC23C=CC(=O)CC2CCC13 (stereo not drawn) [Compound 30b, (3α,5β)-3-Hydroxy-13,24-cyclo-18,21-dinorchol-23-en-22-one] | 0.56 ± 0.9 |  | 1.87 ± 0.24 | 1.80 ± 0.25 | 4.44 ± 0.87 | 0.26 ± 0.31 | 196.5 to 199 | 4750 ± 970 | 5.48 |  | 
CC12CCC(O)CC1CCC1C2CCC23C(=O)C=CCC2CCC13 (stereo not drawn) [Compound 35a, (3α,5α)-3-Hydroxy-13,24-cyclo-18,21-dinorchol-22-en-24-one] | 1.02 ± 0.0 |  | 1.98 ± 0.25 | 8.33 ± 0.75 | 9.45 ± 4.19 | 0.07 ± 0.10 | 242 to 243 | 197 ± 23 | 2.66 | readily reversible | 
CC12CCC(O)CC1CCC1C2CCC23C(=O)C=CCC2CCC13 (stereo not drawn) [Compound 35b, (3α,5β)-3-Hydroxy-13,24-cyclo-18,21-dinorchol-22-en-24-one] | 0.40 ± 0.13 |  | 1.36 ± 0.60 | 3.15 ± 1.19 | 21.38 ± 11.08 | 0.20 ± 0.19 | 222 to 223 | 105 ± 12 | 1 |  | 
C[C@]12CC[C@@H](O)C[C@@H]1CCC1C3CC[C@@H]4[C@H](C#N)CCC[C@]34CCC12 (stereo partly drawn) [Compound 39, (3α,5α,20R)-3-Hydroxy-13,24-cyclo-18,21-dinorcholane-20-carbonitrile] | 0.49 ± 0.09 |  | 1.04 ± 0.03 | 1.12 ± 0.08 | 1.70 ± 0.10 | 0.04 ± 0.04 | 213 to 214 | 1670 ± 138 |  |  | None @ 10
C[C@]12CC[C@@H](O)C[C@@H]1CCC1C3CC[C@@H]4[C@@H](C#N)CCC[C@]34CCC12 (stereo partly drawn) [Compound 40, (3α,5α,20S)-3-Hydroxy-13,24-cyclo-18,21-dinorcholane-20-carbonitrile] | >10 |  | 1.06 ± 0.03 | 1.23 ± 0.02 | 1.27 ± 0.02 | −0.01 ± 0.01 | 250 to 251 | 173 ± 12 |  |  | None @ 10
C[C@]12CC[C@@H](O)C[C@@H]1CCC1C3CC[C@@H]4C[C@@H](C#N)CC[C@]34CCC12 (stereo partly drawn) [Compound 44, (3α,5α,22S)-3-Hydroxy-13,24-cyclo-18,21-dinorcholane-22-carbonitrile] | 0.30 ± 0.03 | 6.28 ± 1.08 | 1.19 ± 0.02 | 1.14 ± 0.13 | 4.01 ± 0.42 | 0.03 ± 0.01 | 199 to 200 | 585 ± 30 |  |  | 
C[C@]12CC[C@@H](O)C[C@@H]1CCC1C3CC[C@@H]4C[C@H](C#N)CC[C@]34CCC12 (stereo partly drawn) [Compound 45, (3α,5α,22R)-3-Hydroxy-13,24-cyclo-18,21-dinorcholane-22-carbonitrile] | >10 |  | 0.90 ± 0.02 | 0.82 ± 0.02 | 0.87 ± 0.01 | −0.01 ± 0 | 244 to 246 | 44300 ± 21300 |  |  | None @ 10
C[C@]12CC[C@@H](O)C[C@@H]1CCC1C3CC[C@@H]4CC[C@@H](C#N)C[C@]34CCC12 (stereo partly drawn) [Compound 49, (3α,5α,20R)-3-Hydroxy-13,24-cyclo-18,21-dinorcholane-23-carbonitrile] | 0.35 ± 0.09 | > 10 |  |  | 1.3 ± 0.1 |  | 182 to 183 | 574 ± 26 |  |  | 
